C[C@@H]1O[C@@H](O[C@H]2[C@H](Oc3cc(O)c4c(c3)O[C@H](c3ccc(O)cc3)CC4=O)O[C@H](CO)[C@@H](O)[C@@H]2O)[C@H](O)[C@H](O)[C@H]1O
solubility (mole fraction)
Details	283.15 K	288.15 K	293.15 K	298.15 K	303.15 K	308.15 K	313.15 K	318.15 K
in ethanol	2.26e-05	2.57e-05	3.45e-05	4.05e-05	5.17e-05	6.25e-05	7.96e-05	0.000102
in water	6.21e-07	7.14e-07	9.76e-07	2.87e-06	6.15e-06	1.1e-05	1.55e-05	2.32e-05
